# Test system: not listed separately
# Assay: Measured pKa of cationic lipids in LNP or micellar formulations by TNS fluorescence
# Format: physicochemical
# Details: change on shortening the ester, vs ATX-0002
# Description: pKa of cationic lipids in LNP or micellar Formulations were measured by the procedure of Jayaraman, 2012, Angew. Chem. Int. Ed., 51:8529-33, hereby incorporated by reference. Lipid micelles or LNPs are diluted to 1 mM total lipids in universal buffer with a pH range between 3 and 12 in presence of 0.06 mg/mL 6-(p-toluidino)-2-naphthalenesulfonic acid sodium salt (TNS) reagent (Sigma Aldrich), a pH sensitive fluorescence probe. The anionic TNS molecule fluoresces when associated with the surface of positively charged membranes but is not fluorescent when free in solution, allowing measurement of pKa. The TNS signal is measured on a spectral plate reader. The TNS signal is plotted as function of the pH and analyzed using a non-linear (Boltzman) to determine the pKa.
# Reagents used in the assay include • Hepes free acid, CAS: 7365-45-9 (VWR, 0511-1KG or equivalent) • MES, HPLC grade: (Sigma 105228-100G or equivalent) • Ammonium acetate, HPLC grade: (Sigma 90335-100 mL or equivalent) • Sodium chloride, HPLC grade (VWR EM-MX0475-1 or equivalent) • TNS (Sigma-Aldrich T9792-250 mg or equivalent) • Hydrochloric acid • DMSO • DPBS without calcium and magnesium (GE, SH30028.02 or equivalent) • H2O, HPLC grade (OmniSolv, WX0004-1 or equivalent)
# To prepare a stock solution of Universal Buffer (UB) in a polystyrene sterile storage bottle, prepare 1 L using the following table.
# Reagents are sterile filtered through a 0.2 μm filter. Preparation of UB solution includes adding 5 mL of 1 M HCl to a 350 mL stock solution.
# To prepare a pH ladder, centrifuge tubes (50 mL) with 20 mL UB buffer are used. (pH ˜3) and differing amounts of 2 N NaOH. Stock solutions of TNS at 1 mg/mL in DMSO. 60 μL of TNS at 1 mg/mL is added to 940 μL water to reach a working solution concentration of 0.06 mg/mL. Five test samples, 1 mL of LNP sample in PBS at 1 mM total lipid, and 1 reference sample are analyzed per plate. Samples at different pH values are prepared in wells in which 25 μL of 0.06 mg/mL TNS is added. 15 μL of test samples is added per well. The microplate is incubated for 15 minutes at room temperature in the dark. TNS template can be used to format data from the plate reader. Perform non-linear (Boltzman) regression analysis of the samples in Origin Pro 8 or equivalent software.
row,Structure (SMILES),Δ measured pKa vs ATX-0002
1,CCCCCC/C=C\COC(=O)CCCN(CCCC(=O)OC(CCCCCC)CCCCCCC)C(=O)SCCN(C)C (stereo not shown) [ATX-0058],no impact
2,CCCCCC/C=C\COC(=O)CN(CC(=O)OC(CCCCCCCC)CCCCCCCC)C(=O)SCCN(C)C [ATX-0061],−0.90
3,CCCCCC/C=C\COC(=O)CN(CC(=O)OC(CCCCC)CCCCC)C(=O)SCCN(C)C [ATX-0063],−0.7
4,CCCCCC/C=C\COC(=O)CN(CC(=O)OC(CCCCCCC)CCCCCCCC)C(=O)SCCN(C)C (stereo not shown) [ATX-0064],−0.90

# Same assay, conditions: measured in the Formulation milieu, TNS fluorescence, 1 mM total lipids
row,Structure (SMILES),pKa
1,CCCCCC(CCCCC)OC(=O)CN(CC(=O)OC(CCCCC)CCCCC)C(=O)SCCCN(CC)CC,6.21
2,CCCCCC/C=C\COC(=O)CN(CC(=O)OC(CCCCCCC)CCCCCCC)C(=O)SCCCN(C)C,6.44
3,CCCCCCCC(CCCCCCC)OC(=O)CN(CC(=O)OC(CCCCCCC)CCCCCCC)C(=O)SCCCN(C)C,5.68
4,CCCCCC/C=C\COC(=O)CN(CC(=O)OC(CCCCCCCC)CCCCCCCC)C(=O)SCCCN(C)C,6.38
5,CCCCCC/C=C\COC(=O)CN(CC(=O)OC(CCCCCCCC)CCCCCCCC)C(=O)SCCCN(CC)CC,6.2
6,CCCCCC/C=C\COC(=O)CN(CC(=O)OC(CCCCCCCC)CCCCCCCC)C(=O)SCCCCN(C)C,6.69
7,CCCCCC/C=C\COC(=O)CN(CC(=O)OC(CCCCCCCC)CCCCCCCC)C(=O)SCCCCN(CC)CC,6.9
8,CCCCCC/C=C\COC(=O)CCCN(CC(=O)OC(CCCCCCC)CCCCCCC)C(=O)SCCN(C)C,5.83
9,CCCCCC/C=C\COC(=O)CCCN(CC(=O)OC(CCCCCCC)CCCCCCC)C(=O)SCCCN(C)C,6.85
10,CCCCCC/C=C\COC(=O)CCCN(CC(=O)OC(CCCCCCC)CCCCCCC)C(=O)SCCCN(CC)CC,6.53
11,CCC/C=C/CCC(CC/C=C/CCC)OC(=O)CCCN(CCCC(=O)OC/C=C\CCCCCC)C(=O)SCCN(C)C,6
12,CCCCCC/C=C\COC(=O)CCCN(CCCC(=O)OC(CCCCCCC)CCCCCCC)C(=O)SCCCN(CC)CC,6.66
13,CCCCCC/C=C\COC(=O)CCCN(CCCC(=O)OC(CCCCCCC)CCCCCCCC)C(=O)SCCCN(CC)CC (stereo not shown),6.65
14,CCCCCC/C=C\COC(=O)CCCN(CCCC(=O)OC(CCCCCCCC)CCCCCCCC)C(=O)SCCCN(CC)CC,6.58
15,CCCCCC/C=C\COC(=O)CCCN(CCCC(=O)OC(CCCCCC)CCCCCCC)C(=O)SCCN(C)C (stereo not shown) [ATX-0058],5.95
16,CCCCCC/C=C\COC(=O)CN(CC(=O)OC(CCCCCCCC)CCCCCCCC)C(=O)SCCN(C)C [ATX-0061],5.13
17,CCCCCC/C=C\COC(=O)CN(CC(=O)OC(CCCCC)CCCCC)C(=O)SCCN(C)C [ATX-0063],5.39
18,CCCCCC/C=C\COC(=O)CN(CC(=O)OC(CCCCCCC)CCCCCCCC)C(=O)SCCN(C)C (stereo not shown) [ATX-0064],5.14

# Test system: Factor VII
# Assay: In vivo mouse Factor VII siRNA knockdown with lipid nanoparticles
# Set-up: species or system C57BL/6 mice
# Details: both at 0.03 and 0.1 mg/kg, intravenous, 48 hours, mice
# Description: The first pair of numbers denotes the number of carbons in the ester, including the carbonyl, for L1 and L2; the pair of numbers in the parenthesis denotes the number of carbons in each branch of the branched alkyl, R1 or if R2 is also branched, R1/R2 (an asterisk denotes a double bond); the number of carbons in R3 is given; and the last line denotes the substitution for R4 and R5. The ATX number is given for reference herein. Calculated Log D values (c-Log D) and calculated pKa (c-pKa) values are given, as well as measured pKa in parenthesis (measured in the Formulation milieu). The c-Log D and c-pKa values are generated by ACD Labs Structure Designer v12.0. Bioactivity is percentage in vivo Factor VII knockdown at a dose of 0.03 mg/kg, unless otherwise designated.
# Using a liver-directed in vivo screen of the liposome libraries, a series of compounds were tested that facilitate high levels of siRNA mediated gene silencing in hepatocytes, the cells comprising the liver parenchyma. Factor VII, a blood-clotting factor, is a suitable target gene for assaying functional siRNA delivery to liver. Because this factor is produced specifically in hepatocytes, gene silencing indicates successful delivery to parenchyma, as opposed to delivery to the cells of the reticulo-endothelial system (e.g., Kupffer cells). Furthermore, Factor VII is a secreted protein that can be readily measured in serum, obviating the need to euthanize animals. Silencing at the mRNA level can be readily determined by measuring levels of protein. This is because the protein's short half-life (2-5 hour). Compositions with siRNA directed to […] were Formulated with the lipid, and comparator sample phosphate-buffered saline (PBS). Female C57BL/6 mice (6-8 week old) were used for FVII siRNA knockdown (KD) experiments.
# All Formulations were administered intravenously via tail vein injection at a dose of 0.03 and 0.1 mg/kg at a dosing volume of […]. Terminal blood collection was performed via cardiac puncture under 2% isoflurane at 48 hours after Formulation injections. Blood was collected into 0.109 M citrate buffer tube and processed by centrifugation at 1200 G for 10 min. Plasma was collected and Factor VII protein levels were analyzed by chromogenic assay (Biophen FVII, Aniara Corporation). A standard curve was constructed using samples from PBS-injected mice and relative Factor VII expression was determined by comparing treated groups to untreated PBS control.
row,Structure (SMILES),Factor VII knockdown activity compared with ATX-002 (FIG. 18)
1,CCCCCC/C=C\COC(=O)CCCN(CCCC(=O)OC(CCCCCC)CCCCCCC)C(=O)SCCN(C)C (stereo not shown) [ATX-0058],substantially more effective than ATX-002

# Same assay, conditions: dose 0.03 mg/kg, intravenous, mice, 48 hours
row,Structure (SMILES),Bioactivity: percentage in vivo Factor VII knockdown
1,CCCCCC/C=C\COC(=O)CN(CC(=O)OC(CCCCCCC)CCCCCCC)C(=O)SCCCN(C)C,62 percentage
2,CCCCCCCC(CCCCCCC)OC(=O)CN(CC(=O)OC(CCCCCCC)CCCCCCC)C(=O)SCCCN(C)C,25 percentage
3,CCCCCC/C=C\COC(=O)CN(CC(=O)OC(CCCCCCCC)CCCCCCCC)C(=O)SCCCN(C)C,97 percentage
4,CCCCCC/C=C\COC(=O)CN(CC(=O)OC(CCCCCCCC)CCCCCCCC)C(=O)SCCCN(CC)CC,82 percentage
5,CCCCCC/C=C\COC(=O)CN(CC(=O)OC(CCCCCCCC)CCCCCCCC)C(=O)SCCCCN(C)C,90 percentage
6,CCCCCC/C=C\COC(=O)CN(CC(=O)OC(CCCCCCCC)CCCCCCCC)C(=O)SCCCCN(CC)CC,97 percentage
7,CCCCCC/C=C\COC(=O)CCCN(CC(=O)OC(CCCCCCC)CCCCCCC)C(=O)SCCN(C)C,40 percentage
8,CCCCCC/C=C\COC(=O)CCCN(CC(=O)OC(CCCCCCC)CCCCCCC)C(=O)SCCCN(C)C,53 percentage
9,CCCCCC/C=C\COC(=O)CCCN(CC(=O)OC(CCCCCCC)CCCCCCC)C(=O)SCCCN(CC)CC,70 percentage
10,CCC/C=C/CCC(CC/C=C/CCC)OC(=O)CCCN(CCCC(=O)OC/C=C\CCCCCC)C(=O)SCCN(C)C,72 percentage
11,CCCCCC/C=C\COC(=O)CCCN(CCCC(=O)OC(CCCCCCC)CCCCCCC)C(=O)SCCCN(CC)CC,96 percentage
12,CCCCCC/C=C\COC(=O)CCCN(CCCC(=O)OC(CCCCCCC)CCCCCCCC)C(=O)SCCCN(CC)CC (stereo not shown),93 percentage
13,CCCCCC/C=C\COC(=O)CCCN(CCCC(=O)OC(CCCCCCCC)CCCCCCCC)C(=O)SCCCN(CC)CC,75 percentage
14,CCCCCC/C=C\COC(=O)CCCN(CCCC(=O)OC(CCCCCC)CCCCCCC)C(=O)SCCN(C)C (stereo not shown) [ATX-0058],86 percentage
15,CCCCCC/C=C\COC(=O)CN(CC(=O)OC(CCCCCCCC)CCCCCCCC)C(=O)SCCN(C)C [ATX-0061],0 percentage
16,CCCCCC/C=C\COC(=O)CN(CC(=O)OC(CCCCC)CCCCC)C(=O)SCCN(C)C [ATX-0063],0 percentage
17,CCCCCC/C=C\COC(=O)CN(CC(=O)OC(CCCCCCC)CCCCCCCC)C(=O)SCCN(C)C (stereo not shown) [ATX-0064],0 percentage

# From US20210323914A1, “IONIZABLE CATIONIC LIPID FOR RNA DELIVERY” (Arcturus Therapeutics, Inc., priority 2017, published 2021)
